{"source": "paper PMC10384610", "about": "“Combining nonsense mutation suppression therapy with nonsense-mediated decay inhibition in neurofibromatosis type 1” (Molecular Therapy. Nucleic Acids, 2023)", "key": {"[1]": {"test_system": "NF1^NS/− Schwann cells", "assay": "Western blot of neurofibromin and p-ERK in NF1^NS/− Schwann cells (LOH) treated with nonsense suppression drugs", "format": "cell-based, minipig", "conditions": "concentrations of Table S2, 24, 48 or 72 h", "method": "(§1) Schwann cells were isolated as previously described.[9]^,[18] Sciatic nerve or cutaneous neurofibroma were biopsied from WT or NF1^R1947/+ minipigs and transported in Dulbecco’s Modified Eagle’s Medium (DMEM; Thermo) containing 10% fetal bovine serum (FBS; Thermo) and 1% Antibiotic/Antimycotic (AA; Thermo). In a laminar flow hood, specimens were rinsed in 70% ethanol and phosphate-buffered saline (PBS; VWR 16750-078) by briefly dipping into each solution 10 times. Tissues were minced and incubated at 37°C, 5% CO2 in dissociation media containing DMEM with 10% FBS, 1% AA, 1x collagenase A (Thermo), and 1x dispase II (Roche) overnight in a Petri dish, then transferred to a conical and centrifuged at 270 × g for 5 min. Cells were plated onto a poly-L-lysine (0.05 mg/mL) and laminin-coated (10 μg/mL) six-well plate and cultured in complete media containing DMEM with high-glucose (GIBCO) supplemented with 10% FBS (GIBCO), forskolin (2 μM) (Calbiochem), 1% N2 supplement (Thermo), recombinant human neuregulin-b1 (NRG1) (10 ng/mL) (R&D Systems), and 1% AA. Media was replaced every 2 days. Schwann cells were separated from contaminating fibroblasts via magnetic cell selection, as described.[9]^,[18] Purified Schwann cells were expanded and stored in liquid nitrogen at low passage and vials were thawed immediately prior to use in experiments to maintain low-passage cells.\n(§2) For extraction of protein from cells, snap frozen pellets were briefly thawed on ice and resuspended in RIPA buffer (Sigma) containing protease (Sigma) and phosphatase inhibitors (Sigma), then vortexed at 2,000 rpm at 4°C for 20 min, then centrifuged at 4°C for 15 min at 20,000 × g. For extraction of protein from tissues, snap frozen tissues were thawed briefly on ice, then 50 to 80 mg of tissue was transferred to a 2-mL microtube containing ceramic homogenizers (Agilent Technologies) and homogenized using a Bead Blaster (Benchmark Scientific) at 4,260 rpm, 7 m/s linear speed, 3 cycles of 30 s at 4°C. Homogenates were centrifuged at 13,000 rpm for 3 min at 4°C, then supernatants were transferred to new tubes and sonicated at an amplitude of 20A for 10 s at 4°C, vortexed at 2,000 rpm at 4°C for 20 min, then centrifuged at 20,000 × g at 4°C for 15 min.\n(§3) Protein lysates from cells or tissues were quantified using a BCA assay (Thermo). Twenty to 30 μg of protein was denatured at 95°C for 5 min and separated by electrophoresis using SDS on 1.5-mm NuPAGE 4–12% Bis-Tris protein gels (Thermo). Protein was transferred to Immun-Blot PVDF Membrane (Bio-Rad) overnight (16–20 h) at 18 V, 4°C. Membranes were cut according to target molecular weights and blocked at room temperature (RT) for 1 h using 5% blocking grade buffer (Bio-Rad) in TBST (Tris-buffered saline, 0.1% Tween 20) (Sigma). Membranes were incubated with primary antibody overnight at 4°C and washed with TBST three times for 5 min at RT, then incubated with horseradish peroxidase-conjugated secondary antibody for 1 h at RT and washed again as described above. All washes and incubations were performed on a rocking platform. Blots were developed with the WesternBright Quantum Kit (Advansta). Bands were imaged using the Li-Cor Odyssey Fc Imaging System, quantified by densitometry, and normalized to HSP90.\nAtaluren (MedChem Express) was reconstituted in sterile dimethyl sulfoxide (DMSO) to a stock concentration of 10 mM and stored at −80°C. Cells were seeded in complete media at a density of 0.3 × 10^6 cells/plate in 10-cm plates. Media was changed 24 h later to complete media without AA and containing vehicle or drugs at indicated concentrations. Cells were harvested 24, 48, and 72 h after drug treatment and divided for protein and/or RNA extraction."}, "[2]": {"test_system": "NF1^NS/+ Schwann cells", "assay": "Western blot of neurofibromin and p-ERK in NF1^NS/+ Schwann cells treated with nonsense suppression drugs", "format": "cell-based, minipig", "conditions": "for neurofibromin increase in NF1^NS/+ Schwann cell cultures: multiple concentrations (Table S2), 24, 48 or 72 h, 3 biological replicates", "method": "as §1, §2, §3\nAtaluren (MedChem Express) was reconstituted in sterile dimethyl sulfoxide (DMSO) to a stock concentration of 10 mM and stored at −80°C. […]"}, "[3]": {"assay": "in vivo", "conditions": "sc", "method": "Human equivalent doses (HED) were determined by allometric scaling using the standard conversion coefficient (Km), where Km = 1.1 for minipig and HED determination. Consequently, a 7.5-mg/kg human equivalent dose was 8.25 mg/kg. The required volume of drug for each animal was then based on individual body weight and determined on the day of administration.\n(§4) Tissue samples (skin, sciatic nerve, optic nerve, and cortex) were collected from each animal at the same approximate locations and divided for analysis.\nPlasma isolations were performed as described in a previous study.[10] Briefly, serial whole blood samples (1.5 mL) were collected from the jugular vein into lithium heparin vacutainer tubes. Samples were immediately transferred to a 1.7-mL microfuge tube and centrifuged at 2,000 × g for 10 min at 4°C. Supernatant (plasma) was transferred to a cryovial and stored at −80°C until analysis. […] Assay analytical measurement ranged from 0.2 to 12 mg/L, and samples with results higher than 12 mg/L were diluted appropriately and re-analyzed. Within-run precision is 0.3% CV, between-day precision is 0.4% CV, and accuracy is 99.8% (correlation coefficient). For each tissue type (skin, sciatic nerve, optic nerve, and cerebral cortex), samples were analyzed commercially using liquid chromatography with tandem mass spectrometry (LC-MS/MS; BioAgilytix, San Diego, CA). […] Standard curves and quality controls were prepared with untreated tissues. Tissues were prepared with a homogenization solution containing collagenase. […] The LC-MS/MS system consisted of a Waters Acquity UPLC (Milford, MA) coupled with a Waters Xevo TQ-S Micro Triple Quad mass spectrometer (Milford, MA). Mass transition data were acquired in electrospray positive ion (ESI^+) mode and captured using MassLynx 4.1 (Waters, Milford, MA).\nPharmacokinetic parameters and measures of systemic exposure included area under the concentration-time curve (AUC; linear up, log down), maximum concentration (Cmax), time to Cmax (Tmax), and half-life (t1/2)."}, "[4]": {"conditions": "NF1 minipig (NF1^R1947*/+), in vivo, 30 min", "method": "Tissues were prepared with a homogenization solution containing collagenase."}, "[5]": {"test_system": "neurofibromin and p-ERK protein levels", "assay": "Pharmacodynamics: western blot of neurofibromin and p-ERK in NF1 minipig tissues", "format": "in vivo", "conditions": "treated (n = 5) vs untreated controls (n = 4), sc 8.25 mg/kg daily 14 days", "from_the_text": "as §4"}, "[6]": {"assay": "Tolerability and renal parameters in NF1 minipigs", "format": "in vivo, minipig", "conditions": "sc 8.25 mg/kg once daily for 14 days"}, "[7]": {"conditions": "murine models of DMD and CF, subcutaneous once daily 34 mg/kg, suppresses PTCs; cited from earlier work"}, "[8]": {"conditions": "human patients with DMD or CF, once daily intravenous infusion 7.5–10 mg/kg; cited from earlier work"}, "[9]": {"design": "method as in PMID 33978635", "conditions": "NF1 minipigs compared with WT minipigs; cited from earlier work"}, "[10]": {"test_system": "NF1^R1947∗ mutation dual luciferase reporter in NF1^NS/− Schwann cells", "assay": "Dual luciferase reporter (DLR) readthrough assay in minipig Schwann cells", "format": "cell-based", "conditions": "minipig NF1^NS/− cNF Schwann cells, 48 h, normalized to Renilla", "from_the_text": "(§5) The NF1^R1497X DLR plasmid was kindly provided by David Bedwell at University of Alabama. The Renilla-NF1-R1947X-Firefly insert contains 30 nucleotides surrounding the premature termination codon in NF1-R1947X inserted between the Renilla and Firefly genes. The 30-base pair readthrough cassette contains NF1^R1497X (G TCGACGGATGCCAAATGACAAAGAGTTGGATCC). Plasmids were amplified in DH5a E. coli using ampicillin selection and purified using a Qiagen miniprep kit, according to the manufacturer’s protocol. To produce stable cell cultures, we used Gateway cloning to transfer the DLR insert to a hygromycin-resistant PiggyBac Sleeping Beauty (PBSB) transposon vector. Briefly, a GBlock containing the DLR insert sequence and attB sites was cloned into the pDONR221 vector using BP clonase to produce pENTR-Renilla-NF1-R1947X-Firefly. This was cloned into the PBSB vector using LR clonase to produce pPBSB-CG-Renilla-NF1-R1947X-Firefly-PGK-Hygro, which was confirmed by DNA sequencing. Schwann cells were grown to 80% confluency and transfected with the PBSB transposon and PB7 (PiggyBac transposase) (5 μg each/ 1million cells) using the Neon electroporation system (Invitrogen #MPK10096). […] The DLR assay system (Promega) was used to detect readthrough, according to the manufacturer’s instructions. Luminescence was measured using the Cytation 5 plate reader. […]"}, "[11]": {"test_system": "NF1^R1947∗ mutation dual luciferase reporter in iPNF95.6 cells", "assay": "Dual luciferase reporter (DLR) readthrough assay in human Schwann cells", "format": "cell-based", "conditions": "human Schwann cells iPNF95.6, 48 h, normalized to Renilla", "from_the_text": "as §5"}, "[12]": {"conditions": "NF1^NS/+ Schwann cells, 100 μg/mL, 48 h"}}, "note": "Read-outs that look alike come from different tables or passages of the source."}
{"compound": "O=C(O)c1cccc(-c2noc(-c3ccccc3F)n2)c1", "note": "[ataluren]", "values": [{"measurement": "nonsense suppression through expression of neurofibromin", "setting": "[1]", "value": "no indication of nonsense suppression through expression of neurofibromin"}, {"measurement": "reduction in p-ERK", "setting": "[1]", "value": "not a corresponding reduction in p-ERK"}]}
{"compound": "CNC(C)C1CCC(N)C(OC2C(N)CC(N)C(OC3OCC(C)(O)C(NC)C3O)C2O)O1", "note": "(centres unmarked) [gentamicin]", "values": [{"measurement": "neurofibromin, dose trend", "setting": "[2]; NF1^NS/+ Schwann cells, 250 or 500 μg/mL, 48 h, not replicated in other cultures", "value": "linear increase in neurofibromin at 48 h in one replicate"}, {"measurement": "neurofibromin increase in NF1^NS/+ Schwann cell cultures", "setting": "[2]", "value": "not consistent between replicates or did not exhibit a dose- or time-dependent increase"}, {"measurement": "nonsense suppression through expression of neurofibromin", "setting": "[1]", "value": "no indication of nonsense suppression through expression of neurofibromin"}, {"measurement": "reduction in p-ERK", "setting": "[1]", "value": "not a corresponding reduction in p-ERK"}, {"measurement": "Cmax", "setting": "[3]; NF1 minipig, 8.25 mg/kg, Cmax", "value": 38000, "unit": "ng/mL"}, {"measurement": "half-life", "setting": "[3]; NF1 minipig, 8.25 mg/kg, t1/2", "value": 109, "unit": "min"}, {"measurement": "Cmax", "setting": "[3]; Ossabaw, minipig, 8.25 mg/kg, mean Cmax", "value": 38000, "unit": "ng/mL"}, {"measurement": "Cmax", "setting": "[3]; Ossabaw, minipig, 8.25 mg/kg, target Cmax reached", "value": 40000, "unit": "ng/mL"}, {"measurement": "changes in PK parameters after 14 days", "setting": "[3]; minipig", "value": "no significant changes in PK parameters"}, {"measurement": "difference of mean tissue concentrations from cortex (lowest) to sciatic nerve (highest)", "setting": "[4]", "value": "up to 8 fold"}, {"measurement": "neurofibromin protein expression in other tissues (cortex, sciatic nerve)", "setting": "[5]", "value": "no significant change"}, {"measurement": "p-ERK downregulation in tissues (optic nerve, cortex, sciatic nerve, skin)", "setting": "[5]", "value": "not significant in any tissues"}, {"measurement": "neurofibromin protein expression in optic nerve tissue", "setting": "[5]; p = 0.01", "value": "higher"}, {"measurement": "tolerability, renal parameters including serum creatinine and blood urea nitrogen", "setting": "[6]", "value": "well tolerated with no significant changes in renal parameters"}, {"measurement": "peak plasma concentration (Cmax)", "setting": "[7]", "value": "40 to 60", "unit": "µg/mL"}, {"measurement": "Cmax", "setting": "[8]", "value": "20 to 40", "unit": "µg/mL"}]}
{"compound": "Cn1cnc2c(F)c(Nc3ccc(Br)cc3Cl)c(C(=O)NOCCO)cc21", "note": "[selumetinib]", "values": [{"measurement": "concentration in the brain", "setting": "[9]", "value": "reaches higher concentrations in the brain of NF1 minipigs compared with WT minipigs"}]}
{"compound": "CN[C@@H]1[C@@H](O)[C@@H](O[C@@H]2[C@@H](O)[C@H](O[C@H]3O[C@H]([C@@H](C)O)[C@@H](O)[C@H](O)[C@H]3N)[C@@H](N)C[C@H]2N)OC[C@]1(C)O", "note": "[G418]", "values": [{"measurement": "neurofibromin", "setting": "[2]; [12]", "value": "increased in all three replicates"}, {"measurement": "p-ERK", "setting": "[2]; [12]", "value": "paradoxically increased"}, {"measurement": "neurofibromin increase in NF1^NS/+ Schwann cell cultures", "setting": "[2]", "value": "not consistent between replicates or did not exhibit a dose- or time-dependent increase"}, {"measurement": "nonsense suppression through expression of neurofibromin", "setting": "[1]", "value": "no indication of nonsense suppression through expression of neurofibromin"}, {"measurement": "reduction in p-ERK", "setting": "[1]", "value": "not a corresponding reduction in p-ERK"}, {"measurement": "firefly luciferase activity compared with vehicle-treated cells", "setting": "[10]", "value": "significant and dose-dependent increase"}, {"measurement": "firefly luciferase activity compared with vehicle-treated cells", "setting": "[11]", "value": "significant and dose-dependent increase"}]}
